These results are taken from paper PMC7795096, “LPMO AfAA9_B and Cellobiohydrolase AfCel6A from A. fumigatus Boost Enzymatic Saccharification Activity of Cellulase Cocktail” (International Journal of Molecular Sciences, 2020).

This experiment concerns the target T1, AfCel6A (Aspergillus fumigatus, UniProt Q4WFK4).
T1 construct: gene cbhC; without predicted signal peptide (forward primer encodes QQTVW start) in pPICZαA, with N-terminal CBM1, His6 tag kept, secreted by Pichia pastoris X-33, about 65 kDa
T1 sequence (Q4WFK4 20-454): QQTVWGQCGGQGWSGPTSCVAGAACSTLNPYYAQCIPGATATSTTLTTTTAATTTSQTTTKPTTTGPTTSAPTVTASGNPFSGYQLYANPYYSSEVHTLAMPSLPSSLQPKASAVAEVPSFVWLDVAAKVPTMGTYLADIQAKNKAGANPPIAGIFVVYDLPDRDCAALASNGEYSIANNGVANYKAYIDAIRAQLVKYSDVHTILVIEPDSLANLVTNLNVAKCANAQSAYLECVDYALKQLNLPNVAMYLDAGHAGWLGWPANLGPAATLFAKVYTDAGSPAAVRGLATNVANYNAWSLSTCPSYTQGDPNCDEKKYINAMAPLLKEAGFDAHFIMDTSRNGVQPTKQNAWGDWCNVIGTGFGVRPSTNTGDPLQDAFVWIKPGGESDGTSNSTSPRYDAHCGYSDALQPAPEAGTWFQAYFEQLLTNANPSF
The experiment in a line: activity at rising sugar concentration ([…]), substrate 4-nitrophenyl β-D-cellobioside. It counts as biochemical. The conditions noted are these: product inhibition; the text also states 50% inhibition at 100 mM.

In general, IC50 refers to the point on the concentration scale where inhibition reaches its midpoint.

For `OC[C@H]1O[C@@H](O[C@H]2[C@H](O)[C@@H](O)C(O)O[C@@H]2CO)[C@H](O)[C@@H](O)[C@@H]1O` (stereo partly shown) [cellobiose], the IC50 is over 100 mM.
